Assay results as given in patent publication US11161846B2, “Substituted pyrazolo[4,3-b]pyridines and their use as GluN2B receptor modulators” (JANSSEN PHARMACEUTICA NV, priority 2019, dated 2021).

Target: T1, human GluN1/GluN2B NMDA receptors (Homo sapiens, UniProt Q05586+Q13224)
T1 construct: expressed in transfected cells
Experiment: Calcium flux (FLIPR) assay on cloned human NR1/GluN2B ion channels expressed in mammalian cells, standard assay
Type: cell-based
Conditions: glutamate ~EC40 and 10 μM glycine, stable cell line with Tet-On induced expression
Outline: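 Tet-On-induced stable mammalian line loaded with Calcium 5 dye (0.5 mM MgCl2 loading buffer), then assayed in pH 7.4 buffer with 137 mM NaCl, 4 mM KCl, 2 mM CaCl2. Compound was added for 5 min, then glutamate (~EC40) plus 10 µM glycine for 5 min. FLIPR fluorescence was normalized to control wells.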

T1 sequence (Q13224 27-1484, other chains not shown): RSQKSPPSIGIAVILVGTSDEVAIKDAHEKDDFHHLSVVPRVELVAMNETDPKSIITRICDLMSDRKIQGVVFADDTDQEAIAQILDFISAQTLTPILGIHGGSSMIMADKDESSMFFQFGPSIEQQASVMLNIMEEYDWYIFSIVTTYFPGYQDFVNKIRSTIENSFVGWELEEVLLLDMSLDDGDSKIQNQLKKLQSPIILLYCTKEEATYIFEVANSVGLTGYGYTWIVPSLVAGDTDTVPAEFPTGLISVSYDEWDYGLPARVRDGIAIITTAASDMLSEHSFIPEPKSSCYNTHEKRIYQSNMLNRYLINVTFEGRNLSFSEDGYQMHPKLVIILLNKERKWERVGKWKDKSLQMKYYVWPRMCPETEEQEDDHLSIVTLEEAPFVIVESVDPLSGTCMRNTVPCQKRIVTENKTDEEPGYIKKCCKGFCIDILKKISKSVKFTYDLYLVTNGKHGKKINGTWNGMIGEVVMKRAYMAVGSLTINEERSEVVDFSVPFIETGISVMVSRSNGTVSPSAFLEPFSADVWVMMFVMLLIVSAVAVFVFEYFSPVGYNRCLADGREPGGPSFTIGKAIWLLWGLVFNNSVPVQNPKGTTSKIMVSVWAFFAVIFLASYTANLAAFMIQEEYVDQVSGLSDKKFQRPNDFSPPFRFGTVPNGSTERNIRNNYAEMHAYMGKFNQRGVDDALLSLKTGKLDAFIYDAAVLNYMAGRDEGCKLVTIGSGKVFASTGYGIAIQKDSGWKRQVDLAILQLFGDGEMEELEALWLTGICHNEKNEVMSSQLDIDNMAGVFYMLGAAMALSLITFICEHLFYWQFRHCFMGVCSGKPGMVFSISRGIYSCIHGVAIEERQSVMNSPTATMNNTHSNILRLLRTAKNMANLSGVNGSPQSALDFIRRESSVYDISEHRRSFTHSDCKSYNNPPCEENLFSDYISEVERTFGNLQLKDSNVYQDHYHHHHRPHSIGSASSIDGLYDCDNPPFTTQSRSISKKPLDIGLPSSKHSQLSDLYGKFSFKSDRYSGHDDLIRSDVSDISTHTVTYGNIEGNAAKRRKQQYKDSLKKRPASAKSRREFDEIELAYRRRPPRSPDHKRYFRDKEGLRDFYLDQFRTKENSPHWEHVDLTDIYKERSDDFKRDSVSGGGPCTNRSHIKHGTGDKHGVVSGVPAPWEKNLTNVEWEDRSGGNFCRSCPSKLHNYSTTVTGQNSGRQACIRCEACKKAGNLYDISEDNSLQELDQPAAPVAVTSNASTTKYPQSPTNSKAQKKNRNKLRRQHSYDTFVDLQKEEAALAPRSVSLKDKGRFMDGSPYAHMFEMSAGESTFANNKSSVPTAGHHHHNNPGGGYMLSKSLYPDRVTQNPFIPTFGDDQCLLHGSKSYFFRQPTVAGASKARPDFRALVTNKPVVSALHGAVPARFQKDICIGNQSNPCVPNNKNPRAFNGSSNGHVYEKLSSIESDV

| SMILES | IC50 |
| --- | --- |
| CC[S+]([O-])Cn1ncc2ncc(-c3ccc(F)c(C(F)F)c3)cc21 (single isomer, unassigned) [Example 85, (R*)-6-(3-(Difluoromethyl)-4-fluorophenyl)-1-((ethylsulfinyl)methyl)-1H-pyrazolo[4,3-b]pyridine] | 66 nM |
| Cc1c(F)ccc(-c2cnc3cnn(CC(=O)C4CC4)c3c2)c1C [Example 78, 1-Cyclopropyl-2-[6-(4-fluoro-2,3-dimethyl-phenyl)pyrazolo[4,3-b]pyridin-1-yl]ethanone] | 85 nM |
| O=C(Cn1ncc2ncc(-c3cccc(F)c3F)cc21)C1CC1 [Example 64, 1-Cyclopropyl-2-[6-(2,3-difluorophenyl)pyrazolo[4,3-b]pyridin-1-yl]ethanone] | 37 nM |
| CC(C)C(=O)Cn1ncc2ncc(-c3ccc(F)cc3)cc21 [Example 45, 1-[6-(4-Fluorophenyl)pyrazolo[4,3-b]pyridin-1-yl]-3-methyl-butan-2-one] | 36 nM |
| CC(C)C(O)Cn1ncc2ncc(-c3cccc(C(F)(F)F)c3)cc21 (racemic) [Example 3, (RS)-3-Methyl-1-[6-[3-(trifluoromethyl)phenyl]pyrazolo[4,3-b]pyridin-1-yl]butan-2-ol] | 567 nM |
| CCN1C[C@H](Cn2ncc3ncc(-c4ccc(F)c(C(F)F)c4)cc32)OC1=O [Example 133, (R)-5-[[6-[3-(Difluoromethyl)-4-fluoro-phenyl]pyrazolo[4,3-b]pyridin-1-yl]methyl]-3-ethyl-oxazolidin-2-one] | 204 nM |
| O=C1OC(Cn2ncc3ncc(-c4ccc(F)c(C(F)F)c4)cc32)CN1C1CC1 (racemic) [Example 134, (RS)-3-Cyclopropyl-5-[[6-[3-(difluoromethyl)-4-fluoro-phenyl]pyrazolo[4,3-b]pyridin-1-yl]methyl]oxazolidin-2-one] | 1630 nM |
| FC(F)(F)c1cccc(-c2cnc3cnn(CC4CCCO4)c3c2)c1 (racemic) [Example 111, (RS)-1-(Tetrahydrofuran-2-ylmethyl)-6-[3-(trifluoromethyl)phenyl]pyrazolo[4,3-b]pyridine] | 93 nM |
| OC(Cn1ncc2ncc(-c3ccc(F)c(C(F)F)c3)cc21)C1CC1 (racemic) [Example 104, (RS)-1-Cyclopropyl-2-(6-(3-(difluoromethyl)-4-fluorophenyl)-1H-pyrazolo[4,3-b]pyridin-1-yl)ethan-1-ol] | 165 nM |
| O=C(Cn1ncc2ncc(-c3cccc(C(F)(F)F)c3F)cc21)C1CC1 [Example 73, 1-Cyclopropyl-2-[6-[2-fluoro-3-(trifluoromethyl)phenyl]pyrazolo[4,3-b]pyridin-1-yl]ethanone] | 43 nM |
| CN1C(=O)OCC1Cn1ncc2ncc(-c3ccc(F)c(C(F)F)c3)cc21 (racemic) [Example 124, (RS)-4-[[6-[3-(Difluoromethyl)-4-fluoro-phenyl]pyrazolo[4,3-b]pyridin-1-yl]methyl]-3-methyl-oxazolidin-2-one] | 1890 nM |
| CN1C(=O)OCC1Cn1ncc2ncc(-c3ccc(F)c(OC(F)F)c3)cc21 (racemic) [Example 123, (RS)-4-((6-(3-(difluoromethoxy)-4-fluorophenyl)-1H-pyrazolo[4,3-b]pyridin-1-yl)methyl)-3-methyloxazolidin-2-one] | 2830 nM |
| CC(C)C(=O)Cn1ncc2ncc(-c3ccc(F)c(C(F)(F)F)c3)cc21 [Example 51, 1-[6-[4-Fluoro-3-(trifluoromethyl)phenyl]pyrazolo[4,3-b]pyridin-1-yl]-3-methyl-butan-2-one] | 296 nM |
| O=C(Cn1ncc2ncc(-c3cccc(OC(F)(F)F)c3)cc21)C1CC1 [Example 63, 1-Cyclopropyl-2-[6-[3-(trifluoromethoxy)phenyl]pyrazolo[4,3-b]pyridin-1-yl]ethanone] | 31 nM |
| CC[S+]([O-])Cn1ncc2ncc(-c3ccc(Cl)c(OC(F)F)c3)cc21 (racemic) [Example 87, (RS)-6-[4-Chloro-3-(difluoromethoxy)phenyl]-1-(ethylsulfinylmethyl)pyrazolo[4,3-b]pyridine] | 109 nM |
| CCC(O)Cn1ncc2ncc(-c3cccc(C(C)(F)F)c3)cc21 (racemic) [Example 95, (RS)-1-[6-[3-(1,1-Difluoroethyl)phenyl]pyrazolo[4,3-b]pyridin-1-yl]butan-2-ol] | 272 nM |
| CN1C[C@H](Cn2ncc3ncc(-c4ccc(F)c(C(F)F)c4)cc32)OC1=O [Example 129] | 30 nM |
| O=C(Cn1ncc2ncc(-c3ccc(F)c(C(F)F)c3)cc21)c1cnccn1 [Example 142, 2-(6-(3-(Difluoromethyl)-4-fluorophenyl)-1H-pyrazolo[4,3-b]pyridin-1-yl)-1-(pyrazin-2-yl)ethan-1-one] | 74 nM |
| CC(F)(F)c1cc(-c2cnc3cnn(CC4CNC(=O)O4)c3c2)ccc1F (racemic) [Example 127, (RS)-5-[[6-[3-(1,1-Difluoroethyl)-4-fluoro-phenyl]pyrazolo[4,3-b]pyridin-1-yl]methyl]oxazolidin-2-one] | 973 nM |
| CN1CCC(Cn2ncc3ncc(-c4ccc(F)c(C(F)F)c4)cc32)C1=O (racemic) [Example 116, (RS)-3-[[6-[3-(Difluoromethyl)-4-fluoro-phenyl]pyrazolo[4,3-b]pyridin-1-yl]methyl]-1-methyl-pyrrolidin-2-one] | 303 nM |
| Cc1cc(-c2cnc3cnn(CC(O)C4CC4)c3c2)ccc1F (racemic) [Example 101, (RS)-1-Cyclopropyl-2-[6-(4-fluoro-3-methyl-phenyl)pyrazolo[4,3-b]pyridin-1-yl]ethanol] | 167 nM |
| CCC(F)(F)Cn1ncc2ncc(-c3ccc(F)c(C(F)F)c3)cc21 [Example 98, 1-(2,2-Difluorobutyl)-6-[3-(difluoromethyl)-4-fluoro-phenyl]pyrazolo[4,3-b]pyridine] | 89 nM |

These reach a lower IC50. Values come first.

| IC50 | SMILES |
| --- | --- |
| 28 nM | CCC(=O)Cn1ncc2ncc(-c3ccc(F)c(F)c3F)cc21 [Example 43, 1-[6-(2,3,4-Trifluorophenyl)pyrazolo[4,3-b]pyridin-1-yl]butan-2-one] |
| 27 nM | CCC(=O)Cn1ncc2ncc(-c3cc(F)c(F)c(F)c3)cc21 [Example 42, 1-[6-(3,4,5-Trifluorophenyl)pyrazolo[4,3-b]pyridin-1-yl]butan-2-one] |
| 27 nM | CCC(=O)Cn1nc(C)c2ncc(-c3ccc(F)c(C(F)F)c3)cc21 [Example 36, 1-(6-(3-(Difluoromethyl)-4-fluorophenyl)-3-methyl-1H-pyrazolo[4,3-b]pyridin-1-yl)butan-2-one] |
| 27 nM | CCC(=O)Cn1ncc2ncc(-c3cccc(C(F)F)c3)cc21 [Example 30, 1-[6-[3-(Difluoromethyl)phenyl]pyrazolo[4,3-b]pyridin-1-yl]butan-2-one] |
| 23 nM | CC(C)C(=O)Cn1ncc2ncc(-c3cccc(C(F)F)c3)cc21 [Example 47, 1-[6-[3-(Difluoromethyl)phenyl]pyrazolo[4,3-b]pyridin-1-yl]-3-methyl-butan-2-one] |
| 23 nM | Fc1ccc(-c2cnc3cnn(CC4CCOC4)c3c2)cc1C(F)F (racemic) [Example 113, (RS)-6-[3-(Difluoromethyl)-4-fluoro-phenyl]-1-(tetrahydrofuran-3-ylmethyl)pyrazolo[4,3-b]pyridine] |
| 15 nM | Cc1ccc(-c2cnc3cnn(CC(=O)C4CC4)c3c2)s1 [Example 56, 1-Cyclopropyl-2-[6-(5-methyl-2-thienyl)pyrazolo[4,3-b]pyridin-1-yl]ethanone] |
| 12 nM | O=C(Cn1ncc2ncc(-c3cccc(C(F)F)c3)cc21)C1CC1 [Example 61, 1-Cyclopropyl-2-[6-[3-(difluoromethyl)phenyl]pyrazolo[4,3-b]pyridin-1-yl]ethanone] |
| 11 nM | CCC(=O)Cn1ncc2ncc(-c3ccc(F)c(OC(F)F)c3)cc21 [Example 40, 1-[6-[3-(Difluoromethoxy)-4-fluoro-phenyl]pyrazolo[4,3-b]pyridin-1-yl]butan-2-one] |
| 10 nM | CCC(=O)Cn1ncc2ncc(-c3ccc(F)c(C(F)F)c3)cc21 [Example 4, 1-[6-[3-(Difluoromethyl)-4-fluoro-phenyl]pyrazolo[4,3-b]pyridin-1-yl]butan-2-one] |
| 8 nM | O=C(Cn1ncc2ncc(-c3ccc(Cl)s3)cc21)C1CC1 [Example 55, 2-[6-(5-Chloro-2-thienyl)pyrazolo[4,3-b]pyridin-1-yl]-1-cyclopropyl-ethanone] |

Tested on: not listed separately
Experiment: Liver microsomal stability (extraction ratio)
Type: in vitro ADME
Conditions: test compound 1 μM; 0.5 mg/mL liver microsomes, NADPH, 37° C.; species not given (method: mouse, rat, and human)
Description: Protocol for Liver Microsomal Stability (Extraction Ratio)
Liver Microsomal Stability.
Microsomal stability studies (Chrovian et al, “1H-Pyrrolo[3,2-b]pyridine GluN2B-Selective Negative Allosteric Modulators”. ACS Med Chem Lett. 2019 Jan. 10; 10(3):261-266) were conducted on a Biomek® FX Robotic Liquid Handling Workstation (Beckman Coulter, Brea, Calif.), which consists of a 96-channel pipette head, a 12-position workstation deck, and a plate incubator. Test compounds (1 μm) were spiked in a reaction mix consisting of 100 mM potassium phosphate buffer (pH 7.4), 3 mM MgCl2, and 0.5 mg/mL liver microsomes from mouse, rat, and human (BD Gentest). The reaction was brought to 37° C. and initiated by adding NADPH to a final concentration of 1 mM. After mixing on the plate deck, 50 μL aliquots were excised from the reaction plate at 0, 5, 10, 20, 40, and 60 min and quenched with four volumes of acetonitrile spiked with […] of the internal standard phenytoin. Quenched plates were centrifuged at 5700 rpm for 10 min at 4° C., and supernatant was diluted 1:3 in water before LC/MS/MS analysis. The compound half-lives were derived from plots of the ln of percent remaining compound over time to determine the intrinsic clearance. The predicted hepatic clearance was derived from the intrinsic clearance value using equations from the well-stirred model (Current Drug Metabolism, 2008, 9, 940-951), where no correction was made plasma protein binding and the blood to plasma concentration ratio was assumed to be one. The extraction ratio (ER) was calculated by dividing the predicted hepatic clearance by species blood flow (Q), where Q is 90, 55, and 21.7 mL/min/kg for mouse, rat and human, respectively.

| SMILES | Extraction Ratio @ 1 μM |
| --- | --- |
| CC[S+]([O-])Cn1ncc2ncc(-c3ccc(F)c(C(F)F)c3)cc21 (single isomer, unassigned) [Example 85, (R*)-6-(3-(Difluoromethyl)-4-fluorophenyl)-1-((ethylsulfinyl)methyl)-1H-pyrazolo[4,3-b]pyridine] | 0.46 |
| Cc1c(F)ccc(-c2cnc3cnn(CC(=O)C4CC4)c3c2)c1C [Example 78, 1-Cyclopropyl-2-[6-(4-fluoro-2,3-dimethyl-phenyl)pyrazolo[4,3-b]pyridin-1-yl]ethanone] | 0.52 |

The remaining lines, values ahead:

| Extraction Ratio @ 1 μM | SMILES |
| --- | --- |
| 0.63 | CCC(=O)Cn1ncc2ncc(-c3cc(F)c(F)c(F)c3)cc21 [Example 42, 1-[6-(3,4,5-Trifluorophenyl)pyrazolo[4,3-b]pyridin-1-yl]butan-2-one] |
| 0.72 | CCC(=O)Cn1nc(C)c2ncc(-c3ccc(F)c(C(F)F)c3)cc21 [Example 36, 1-(6-(3-(Difluoromethyl)-4-fluorophenyl)-3-methyl-1H-pyrazolo[4,3-b]pyridin-1-yl)butan-2-one] |
| 0.43 | O=C(Cn1ncc2ncc(-c3cccc(C(F)F)c3)cc21)C1CC1 [Example 61, 1-Cyclopropyl-2-[6-[3-(difluoromethyl)phenyl]pyrazolo[4,3-b]pyridin-1-yl]ethanone] |
| 0.66 | CCC(=O)Cn1ncc2ncc(-c3ccc(F)c(C(F)F)c3)cc21 [Example 4, 1-[6-[3-(Difluoromethyl)-4-fluoro-phenyl]pyrazolo[4,3-b]pyridin-1-yl]butan-2-one] |
